Measured values taken from patent publication US12390483B2, “Compounds and methods for treating neurological and cardiovascular conditions” (Astrocyte Pharmaceuticals, Inc., priority 2016, dated 2025).
Entries after “also recorded” stand apart in the source; their conditions may differ.

Key:
[1] = tested on: photothrombosis-induced stroke infarctions; test: Photothrombosis-induced stroke in mice, TTC-stained brain infarction size; assay type: in vivo; details: for size of the brain infarction (TTC staining): 24 hours after stroke, versus vehicle; for size of brain infarctions in mice pretreated with the A3 receptor antagonist MRS1523: MRS1523 2 mg/kg i.p. at 0 and 2 hours, treatment within 30 minutes of clot formation, 24 hours
Method: Photothrombosis-induced Stroke: Photothrombosis was performed as described in Zheng et al 2010 (PloS One 5 (12): e14401). In brief, Rose Bengal is a fluorescent dye that when injected into the vasculature and excited, generates singlet oxygen that damages the endothelial wall and induces a local thrombosis (clot). Using this technique, mice were given a 0.1 mL tail-vein injection of sterilized Rose Bengal (RB, Sigma, U.S.A.) in artificial cerebral spinal fluid (aCSF). The RB concentration was 20 mg/mL. A cortical region was centered in the imaging field and illuminated with a green laser (543 nm, 5 mW) using a 0.8-NA 40× water-immersion objective (Nikon, Tokyo). The clot formation was monitored in real time until the targeted vessel or downstream capillaries were firmly occluded. Stable clots were subsequently identified by a non-fluorescent vessel segmentation ending with highly fluorescent regions. […] Treatments, MRS4322 (0.16 mg/kg; 0.5 μmol/kg) or MRS2365 (0.24 mg/kg; 0.5 μmol/kg) were introduced via intraperitoneal injections (i.p.). […] Animals and Photothrombosis-induced Stroke: Stroke was performed as described in Zheng et al 2010 (PloS One 5 (12): e14401). Female C57Bl/6 mice (4-6 months) were used in this study. From the methods of this manuscript: Mice were anesthetized at 3% isoflurane with 100% oxygen and subsequently maintained at 1% isoflurane through a nosecone. Depth of anesthesia was monitored and regulated according to vital signs, pinch withdrawal and eye blinks. Body temperature was maintained at 37° C. by a feedback-controlled heating pad (Gaymar T/Pump). Vital signs including oxygen saturation, respiratory rate, and heart rate were continuously monitored by using the MouseOx system (STARR Life Sciences). The hair on each mouse's head was trimmed and a small incision was made in the scalp to expose the skull. A custom-made stainless steel plate was glued to the skull with VetBond Tissue Adhesive (3M, St Paul, MN). A cranial thinned-skull imaging window was created over the right primary somatosensory cortex (˜1.5 mm posterior to Bregma and 2 mm lateral from midline) depending on the experiment. In brief, a large region of the skull was first thinned with the electric drill and then further thinned with a surgical blade. The final thickness of the thinned skull was approximately 50 μm. After the cranial imaging window was created, mice were transferred to microscope stage and used for photothrombosis or imaging experiments. For the repeat imaging experiments, the plate was carefully detached from the skull and the scalp was sutured (Ethicon 6-0 sild suture). After each experiment, the mice were either returned to cages until the next timepoint or sacrificed. All procedures were approved by the Institutional Animal Care and Use Committee (IACUC) at University of Texas Health Science Center at San Antonio. Thirty minutes following stroke or sham (uninjured), mice were treated with either vehicle (saline) or drugs (MRS4322, MRS2365, MRS5698 or Cl-IBMECA). Post photothrombotic infarction evaluation. The size of cerebral infarcts was evaluated using 2,3,5-Triphenyltetrazolium chloride (TTC) staining as described in Zheng et al 2010 (PloS One 5 (12): e14401). In brief, RB-induced lesions in brain slices were stained with TTC. TTC is a colorless dye that stains healthy brain tissue red when reduced by the mitochondrial enzyme succinyl dehydrogenase (Bederson J B et al., 1986). The absence of staining in necrotic tissue is then used to define the area of a brain infarction. Mice were sacrificed by cervical dislocation, their brains removed and then placed in ice cold HBSS for 3 minutes. […] The sections were fixed in 10% buffered formaldehyde solution overnight at 4° C. Slices were imaged on a flatbed scanner (HP scanjet 8300) for analysis of the lesion size at 1200 dpi. Photothrombosis-induced Stroke: Photothrombosis was performed as described in Zheng et al. 2010 (PloS One 5 (12): e14401). […]

[2] = Previous in vivo pharmacokinetic assessments of MRS2365 in mice; details: heparin as blood anticoagulant for plasma preparation, initial assessments
[3] = In vitro stability and metabolite scouting of MRS2365 in human whole blood; assay type: in vitro ADME; details: 100 μM in human whole blood, lithium heparin as anti-coagulant
Method: Whole blood was obtained from male CD-1 mice and human volunteers at Seventh Wave Laboratories (Maryland Heights, MO). Plasma and blood samples were prepared using either EDTA (1 mM) or lithium heparin as anticoagulants.
Blood sample aliquots were obtained at 0, 1, 2.5, 7.5, 10 and 30 minutes and placed in microtainer tubes. For metabolite scouting analyses, MRS2365 was incubated in heparinized human whole blood at a concentration of 100 μM for 10 or 30 minutes (FIG. 10). In all studies, plasma was immediately prepared by centrifugation at 4° C., placed in microtainer tubes, frozen on dry ice and stored at −80° C. until analysis. […]
Plasma and blood samples were also qualitatively analyzed for MRS2365 metabolites utilizing a LC-MS/MS-based “metabolite scouting” protocol. […] Blood and plasma samples were analyzed by both positive- and negative-ion LC/MS-MS for parent compound and metabolites as it was anticipated that the phosphorylated compounds would preferentially generate negative ions while the riboside MRS4322 would preferentially generate positive ions. In positive-ion mode, extracted ion chromatograms monitored masses in the range of 323.7-324.7 and 403.7-404.7 to scout for MRS4322 and MRS2347, respectively. Any ion peaks in these ranges were further analyzed to generate product ion spectra for these ion chromatogram peaks. […]

[4] = Example 6: mice, 0.5 μmol/kg i.p. within 30 minutes of clot formation

| metabolites observed (M2 = MRS2347, M1 = MRS4322) [3] | SMILES | size of the brain infarction (TTC staining) [1, 4] | size of brain infarctions in mice pretreated with the A3 receptor antagonist MRS1523 [1] | in vivo clearance [2] | size of the brain infarction (TTC staining) ([1]; Example 7: mice, 100 ul of 100 uM i.p. within 30 minutes of clot formation) | efficacy in the mouse photothrombotic stroke model ([1]; summary statement) |
| --- | --- | --- | --- | --- | --- | --- |
| Two metabolites | CSc1nc(N)c2ncn([C@H]3[C@H](O)[C@H](O)[C@]4(COP(=O)(O)OP(=O)(O)O)C[C@H]34)c2n1 [MRS2365] | significantly reduced | not reduced | rapidly cleared at a rate approximating cardiac output | – | – |
| – | CSc1nc(N)c2ncn([C@H]3[C@H](O)[C@H](O)[C@]4(CO)C[C@H]34)c2n1 [MRS4322] | significantly reduced | reversed by MRS1523; also recorded: not reduced | – | significantly reduced | significant efficacy |
